Measurements reported in the supplement of paper PMC11628255, “Interference of metal ions on the bioluminescent signal of firefly, Renilla, and NanoLuc luciferases in high-throughput screening assays” (Frontiers in Chemistry, 2024).
± gives the standard deviation of the averaged measurements.

System: Renilla luciferase (RLuc)
Experiment: normalised percent inhibition of luminescence (vs positive and negative controls); higher = stronger inhibition
Details: metal salt concentration 0.1 mM; screening conditions buffer
Experimental: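 Concentration-response (>=11 concentrations) of metal salts on purified FLuc, NLuc or RLuc luminescence in screening (SC) or 100 mM HEPES (H) buffer; salt pre-incubated with enzyme 10 min at RT, read 10 min after substrate. Normalised percent inhibition vs plate positive (PTC-124, isradipine, BTS) and DMSO negative controls; triplicate wells.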

SMILES | normalised percent inhibition [%]
[Cl][Sn][Cl] [tin(II) chloride] | -1.32 ± 8.7
O=S(=O)([O-])[O-].[Fe+2] [iron(II) sulfate] | 58.5 ± 6.4
O=[N+]([O-])[O-].O=[N+]([O-])[O-].[Pb+2] [lead(II) nitrate] | -5.46 ± 3.8
O=[N+]([O-])[O-].O=[N+]([O-])[O-].[Zn+2] [zinc nitrate] | -8.31 ± 7.2
O=[N+]([O-])[O-].[Ag+] [silver nitrate] | 81.2 ± 3.3
CC#N.CC#N.CC#N.CC#N.F[B-](F)(F)F.[Cu+] [tetrakis(acetonitrile)copper(I) tetrafluoroborate] | 9.12 ± 4.9

Same assay, conditions: metal salt concentration 0.2 mM; screening conditions buffer

SMILES | normalised percent inhibition [%]
O=[N+]([O-])[O-].O=[N+]([O-])[O-].[Cd+2] [cadmium nitrate] | -5.06 ± 7.3
[Cl][Sn][Cl] [tin(II) chloride] | -3.23 ± 5
O=S(=O)([O-])[O-].[Fe+2] [iron(II) sulfate] | 74.4 ± 2.4
O=[N+]([O-])[O-].O=[N+]([O-])[O-].[Pb+2] [lead(II) nitrate] | -6.41 ± 12
O=[N+]([O-])[O-].O=[N+]([O-])[O-].[Zn+2] [zinc nitrate] | -2.75 ± 4.6
O=[N+]([O-])[O-].[Ag+] [silver nitrate] | 101 ± 3.2
CC#N.CC#N.CC#N.CC#N.F[B-](F)(F)F.[Cu+] [tetrakis(acetonitrile)copper(I) tetrafluoroborate] | 3.41 ± 2.5

Same assay, conditions: metal salt concentration 0.5 mM; 100 mM HEPES buffer

SMILES | normalised percent inhibition [%]
O=[N+]([O-])[O-].O=[N+]([O-])[O-].[Cd+2] [cadmium nitrate] | 47.1 ± 20
[Cl][Sn][Cl] [tin(II) chloride] | -38.9 ± 24
O=S(=O)([O-])[O-].[Fe+2] [iron(II) sulfate] | 104.9 ± 0.56
O.O.O.O.O.O.O.O=S(=O)([O-])[O-].[Mg+2] [magnesium sulfate] | -0.986 ± 12
O=[N+]([O-])[O-].[Ag+] [silver nitrate] | 106 ± 1.4
CC#N.CC#N.CC#N.CC#N.F[B-](F)(F)F.[Cu+] [tetrakis(acetonitrile)copper(I) tetrafluoroborate] | 106 ± 2.8

Same assay, conditions: metal salt concentration 0.5 mM; screening conditions buffer

SMILES | normalised percent inhibition [%]
O=[N+]([O-])[O-].O=[N+]([O-])[O-].[Cd+2] [cadmium nitrate] | 39.6 ± 6.7
[Cl][Sn][Cl] [tin(II) chloride] | -6.09 ± 2.5
O=S(=O)([O-])[O-].[Fe+2] [iron(II) sulfate] | 93.3 ± 5.9
O=[N+]([O-])[O-].O=[N+]([O-])[O-].[Pb+2] [lead(II) nitrate] | -3.99 ± 7.6
O=[N+]([O-])[O-].O=[N+]([O-])[O-].[Zn+2] [zinc nitrate] | -0.599 ± 11
O=[N+]([O-])[O-].[Ag+] [silver nitrate] | 105.9 ± 0.6
CC#N.CC#N.CC#N.CC#N.F[B-](F)(F)F.[Cu+] [tetrakis(acetonitrile)copper(I) tetrafluoroborate] | 106.2 ± 0.25

Same assay, conditions: metal salt concentration 1 mM; 100 mM HEPES buffer

SMILES | normalised percent inhibition [%]
O=[N+]([O-])[O-].O=[N+]([O-])[O-].[Cd+2] [cadmium nitrate] | 95.1 ± 2.6
[Cl][Sn][Cl] [tin(II) chloride] | -53 ± 25
O=S(=O)([O-])[O-].[Fe+2] [iron(II) sulfate] | 105 ± 3.1
O.O.O.O.O.O.O.O=S(=O)([O-])[O-].[Mg+2] [magnesium sulfate] | -23.4 ± 23
O=[N+]([O-])[O-].[Ag+] [silver nitrate] | 106 ± 1.3
CC#N.CC#N.CC#N.CC#N.F[B-](F)(F)F.[Cu+] [tetrakis(acetonitrile)copper(I) tetrafluoroborate] | 107.5 ± 0.97

Same assay, conditions: metal salt concentration 1 mM; screening conditions buffer

SMILES | normalised percent inhibition [%]
O=[N+]([O-])[O-].O=[N+]([O-])[O-].[Cd+2] [cadmium nitrate] | 68.6 ± 12
[Cl][Sn][Cl] [tin(II) chloride] | -5.29 ± 9
O=S(=O)([O-])[O-].[Fe+2] [iron(II) sulfate] | 96 ± 1.3
O=[N+]([O-])[O-].O=[N+]([O-])[O-].[Pb+2] [lead(II) nitrate] | 2.9 ± 6.8
O=[N+]([O-])[O-].O=[N+]([O-])[O-].[Zn+2] [zinc nitrate] | 8.71 ± 11
O=[N+]([O-])[O-].[Ag+] [silver nitrate] | 105.9 ± 0.36
CC#N.CC#N.CC#N.CC#N.F[B-](F)(F)F.[Cu+] [tetrakis(acetonitrile)copper(I) tetrafluoroborate] | 106.7 ± 0.13

Same assay, conditions: metal salt concentration 2.5 mM; 100 mM HEPES buffer

SMILES | normalised percent inhibition [%]
O=[N+]([O-])[O-].O=[N+]([O-])[O-].[Cd+2] [cadmium nitrate] | 104 ± 1.3
[Cl][Sn][Cl] [tin(II) chloride] | -45.3 ± 22
O=S(=O)([O-])[O-].[Fe+2] [iron(II) sulfate] | 104 ± 3
O.O.O.O.O.O.O.O=S(=O)([O-])[O-].[Mg+2] [magnesium sulfate] | -40.4 ± 7.5
O=[N+]([O-])[O-].[Ag+] [silver nitrate] | 106.7 ± 0.43
CC#N.CC#N.CC#N.CC#N.F[B-](F)(F)F.[Cu+] [tetrakis(acetonitrile)copper(I) tetrafluoroborate] | 106 ± 1.7

Same assay, conditions: metal salt concentration 2.5 mM; screening conditions buffer

SMILES | normalised percent inhibition [%]
O=[N+]([O-])[O-].O=[N+]([O-])[O-].[Cd+2] [cadmium nitrate] | 79.4 ± 4.4
[Cl][Sn][Cl] [tin(II) chloride] | -6.8 ± 10
O=S(=O)([O-])[O-].[Fe+2] [iron(II) sulfate] | 103.6 ± 0.89
O=[N+]([O-])[O-].O=[N+]([O-])[O-].[Pb+2] [lead(II) nitrate] | 53.3 ± 7.9
O=[N+]([O-])[O-].O=[N+]([O-])[O-].[Zn+2] [zinc nitrate] | -1 ± 8.9
O=[N+]([O-])[O-].[Ag+] [silver nitrate] | 106.2 ± 0.36
CC#N.CC#N.CC#N.CC#N.F[B-](F)(F)F.[Cu+] [tetrakis(acetonitrile)copper(I) tetrafluoroborate] | 106.6 ± 0.25

Same assay, conditions: metal salt concentration 5 mM; 100 mM HEPES buffer

SMILES | normalised percent inhibition [%]
O=[N+]([O-])[O-].O=[N+]([O-])[O-].[Cd+2] [cadmium nitrate] | 105 ± 2.7
[Cl][Sn][Cl] [tin(II) chloride] | 79.9 ± 17
O=S(=O)([O-])[O-].[Fe+2] [iron(II) sulfate] | 107 ± 1.1
O.O.O.O.O.O.O.O=S(=O)([O-])[O-].[Mg+2] [magnesium sulfate] | -22.4 ± 16
